Our source for the POC values is publication PMC10879502, “Linking ATP and allosteric sites to achieve superadditive binding with bivalent EGFR kinase inhibitors” (Communications Chemistry, 2024).

Among the targets are EGFR(E746-A750del) (Homo sapiens, UniProt P00533, DEL746-750); EGFR(G719S) (Homo sapiens, UniProt P00533, G719S); EIF2AK1 (Homo sapiens, UniProt Q9BQI3); EPHB2 (Homo sapiens, UniProt P29323); ERK2 (Homo sapiens, UniProt P28482); NLK (Homo sapiens, UniProt Q9UBE8); PRKCI (Homo sapiens, UniProt P41743); PRKD2 (Homo sapiens, UniProt Q9BZL6); RIOK2 (Homo sapiens, UniProt Q9BVS4).
Experiment in all cases: KINOMEscan
Common to all, as to assay type: binding
Holding throughout (details): 1 μM

The target in assay [1] is T1, ABL1(E255K)-phosphorylated (Homo sapiens, UniProt P00519, E255K).
T1 construct: purchased Eurofins DiscoverX Corporation

For assay [2], the target named is T2, ABL1(F317I)-nonphosphorylated (Homo sapiens, UniProt P00519, F317I).
T2 construct: purchased Eurofins DiscoverX Corporation

A further assay has as its target T3, BUB1 (Homo sapiens, UniProt O43683).
T3 construct: purchased Eurofins DiscoverX Corporation (KINOMEscan)

The target in the next assay is T4, CDC2L2 (Homo sapiens, UniProt Q9UQ88).
T4 construct: purchased Eurofins DiscoverX Corporation (KINOMEscan)

The next assay has as its target T5, CTK (Homo sapiens, UniProt P42679).
T5 construct: purchased Eurofins DiscoverX Corporation

The target in the next assay is T6, FRK (Homo sapiens, UniProt P42685).
T6 construct: purchased Eurofins DiscoverX Corporation

For the next assay, the target named is T7, IKK-beta (Homo sapiens, UniProt O14920).
T7 construct: purchased Eurofins DiscoverX (KINOMEscan)

For a further assay, the target named is T8, JNK1 (Homo sapiens, UniProt P45983).
T8 construct: purchased Eurofins DiscoverX (KINOMEscan)

Another assay concerns the target T9, KIT(D816V) (Homo sapiens, UniProt P10721, D816V).
T9 construct: purchased Eurofins DiscoverX (KINOMEscan)

A further assay concerns the target T10, LCK (Homo sapiens, UniProt P06239).
T10 construct: purchased Eurofins DiscoverX Corporation

For a further assay, the target named is T11, LIMK2 (Homo sapiens, UniProt P53671).
T11 construct: purchased Eurofins DiscoverX Corporation

For another assay, the target named is T12, MEK5 (Homo sapiens, UniProt Q13163).
T12 construct: purchased Eurofins DiscoverX Corporation

The target of a further assay is T13, MKNK2 (Homo sapiens, UniProt Q9HBH9).
T13 construct: purchased Eurofins DiscoverX Corporation

In a further assay the target is T14, MST1R (Homo sapiens, UniProt Q04912).
T14 construct: purchased Eurofins DiscoverX Corporation

A further assay addresses T15, TNNI3K (Homo sapiens, UniProt Q59H18).
T15 construct: purchased Eurofins DiscoverX Corporation

T6 sequence (P42685 whole entry): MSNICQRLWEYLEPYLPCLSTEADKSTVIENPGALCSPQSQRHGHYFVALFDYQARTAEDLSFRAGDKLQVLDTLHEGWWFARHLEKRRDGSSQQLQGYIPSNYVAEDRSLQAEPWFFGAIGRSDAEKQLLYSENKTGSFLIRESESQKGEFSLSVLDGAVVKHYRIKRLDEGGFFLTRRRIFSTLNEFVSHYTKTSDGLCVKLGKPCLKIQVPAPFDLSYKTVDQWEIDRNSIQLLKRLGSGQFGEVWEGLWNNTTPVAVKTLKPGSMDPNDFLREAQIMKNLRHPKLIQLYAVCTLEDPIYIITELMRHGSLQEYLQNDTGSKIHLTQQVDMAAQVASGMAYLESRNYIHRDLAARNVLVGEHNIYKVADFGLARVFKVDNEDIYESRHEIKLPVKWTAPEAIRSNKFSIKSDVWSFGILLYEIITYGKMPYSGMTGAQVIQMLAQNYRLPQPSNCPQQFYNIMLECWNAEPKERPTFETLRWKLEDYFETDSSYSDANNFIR
T15 sequence (Q59H18 whole entry): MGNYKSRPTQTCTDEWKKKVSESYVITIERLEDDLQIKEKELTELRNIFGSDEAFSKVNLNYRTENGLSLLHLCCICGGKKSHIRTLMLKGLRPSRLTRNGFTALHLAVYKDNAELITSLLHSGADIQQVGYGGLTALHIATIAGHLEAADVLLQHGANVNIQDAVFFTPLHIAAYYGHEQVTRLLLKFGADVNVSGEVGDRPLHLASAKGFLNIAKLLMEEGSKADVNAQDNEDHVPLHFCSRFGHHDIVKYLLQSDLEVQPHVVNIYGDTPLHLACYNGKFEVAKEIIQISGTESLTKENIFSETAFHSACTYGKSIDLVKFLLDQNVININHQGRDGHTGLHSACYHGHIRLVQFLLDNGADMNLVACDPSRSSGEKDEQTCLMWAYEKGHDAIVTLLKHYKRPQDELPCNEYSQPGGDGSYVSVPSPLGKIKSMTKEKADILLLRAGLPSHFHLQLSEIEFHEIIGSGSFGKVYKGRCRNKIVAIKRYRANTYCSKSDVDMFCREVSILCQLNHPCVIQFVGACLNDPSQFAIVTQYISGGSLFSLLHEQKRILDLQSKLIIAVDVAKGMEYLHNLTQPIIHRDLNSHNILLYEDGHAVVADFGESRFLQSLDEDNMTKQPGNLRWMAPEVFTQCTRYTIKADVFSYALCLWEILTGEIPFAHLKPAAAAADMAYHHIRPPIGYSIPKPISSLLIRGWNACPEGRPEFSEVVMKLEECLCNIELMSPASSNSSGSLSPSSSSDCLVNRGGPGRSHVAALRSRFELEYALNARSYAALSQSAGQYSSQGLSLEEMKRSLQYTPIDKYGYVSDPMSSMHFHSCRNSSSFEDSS
T5 sequence (P42679 whole entry): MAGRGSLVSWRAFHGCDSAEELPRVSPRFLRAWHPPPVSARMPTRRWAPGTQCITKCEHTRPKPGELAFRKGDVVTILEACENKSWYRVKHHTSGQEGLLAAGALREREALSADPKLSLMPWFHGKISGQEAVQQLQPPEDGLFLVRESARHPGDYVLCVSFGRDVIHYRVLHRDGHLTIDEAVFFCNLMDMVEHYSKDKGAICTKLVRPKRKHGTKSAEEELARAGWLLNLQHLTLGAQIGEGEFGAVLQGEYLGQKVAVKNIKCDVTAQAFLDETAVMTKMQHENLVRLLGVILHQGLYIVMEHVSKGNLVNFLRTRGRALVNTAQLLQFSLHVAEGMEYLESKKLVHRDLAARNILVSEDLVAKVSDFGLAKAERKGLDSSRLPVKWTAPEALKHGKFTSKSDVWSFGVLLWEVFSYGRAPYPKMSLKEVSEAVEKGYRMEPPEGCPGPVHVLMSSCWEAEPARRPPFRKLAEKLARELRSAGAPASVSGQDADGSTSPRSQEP
PRKD2, sequence (Q9BZL6 whole entry): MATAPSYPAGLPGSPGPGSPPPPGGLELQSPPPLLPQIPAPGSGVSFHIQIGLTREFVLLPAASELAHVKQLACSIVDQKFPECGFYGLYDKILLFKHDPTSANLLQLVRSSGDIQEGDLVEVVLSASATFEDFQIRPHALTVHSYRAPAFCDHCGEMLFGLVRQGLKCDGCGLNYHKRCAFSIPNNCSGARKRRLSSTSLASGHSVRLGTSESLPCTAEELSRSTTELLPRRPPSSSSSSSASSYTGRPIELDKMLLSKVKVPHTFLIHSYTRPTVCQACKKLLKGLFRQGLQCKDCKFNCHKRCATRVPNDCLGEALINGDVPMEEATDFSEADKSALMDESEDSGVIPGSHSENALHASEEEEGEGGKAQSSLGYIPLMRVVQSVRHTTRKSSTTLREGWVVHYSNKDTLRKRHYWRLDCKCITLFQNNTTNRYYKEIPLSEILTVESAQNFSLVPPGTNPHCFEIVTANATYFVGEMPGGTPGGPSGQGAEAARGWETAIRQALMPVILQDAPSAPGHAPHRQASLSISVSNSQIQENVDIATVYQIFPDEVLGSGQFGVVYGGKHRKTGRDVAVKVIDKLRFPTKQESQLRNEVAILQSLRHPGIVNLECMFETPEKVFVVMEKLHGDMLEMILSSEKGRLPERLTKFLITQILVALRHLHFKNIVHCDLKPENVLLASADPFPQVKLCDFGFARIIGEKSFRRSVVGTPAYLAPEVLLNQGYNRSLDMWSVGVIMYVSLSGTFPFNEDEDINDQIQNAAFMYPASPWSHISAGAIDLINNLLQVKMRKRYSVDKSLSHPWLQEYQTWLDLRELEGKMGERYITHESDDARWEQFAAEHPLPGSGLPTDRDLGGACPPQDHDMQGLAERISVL
NLK, sequence (Q9UBE8 whole entry): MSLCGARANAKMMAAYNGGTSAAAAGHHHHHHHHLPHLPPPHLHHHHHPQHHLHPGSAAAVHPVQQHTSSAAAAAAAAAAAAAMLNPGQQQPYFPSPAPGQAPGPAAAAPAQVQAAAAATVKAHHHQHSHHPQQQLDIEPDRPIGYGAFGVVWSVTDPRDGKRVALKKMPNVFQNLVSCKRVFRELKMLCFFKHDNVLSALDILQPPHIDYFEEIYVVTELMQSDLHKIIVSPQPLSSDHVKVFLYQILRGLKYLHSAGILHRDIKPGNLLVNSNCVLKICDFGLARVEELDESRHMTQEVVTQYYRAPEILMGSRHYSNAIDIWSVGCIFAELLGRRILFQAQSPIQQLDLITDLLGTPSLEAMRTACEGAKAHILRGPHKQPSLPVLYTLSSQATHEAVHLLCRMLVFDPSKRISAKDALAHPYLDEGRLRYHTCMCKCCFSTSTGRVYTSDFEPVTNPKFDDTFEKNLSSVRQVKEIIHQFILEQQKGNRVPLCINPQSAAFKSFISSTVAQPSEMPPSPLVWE
EPHB2, sequence (P29323 19-1055): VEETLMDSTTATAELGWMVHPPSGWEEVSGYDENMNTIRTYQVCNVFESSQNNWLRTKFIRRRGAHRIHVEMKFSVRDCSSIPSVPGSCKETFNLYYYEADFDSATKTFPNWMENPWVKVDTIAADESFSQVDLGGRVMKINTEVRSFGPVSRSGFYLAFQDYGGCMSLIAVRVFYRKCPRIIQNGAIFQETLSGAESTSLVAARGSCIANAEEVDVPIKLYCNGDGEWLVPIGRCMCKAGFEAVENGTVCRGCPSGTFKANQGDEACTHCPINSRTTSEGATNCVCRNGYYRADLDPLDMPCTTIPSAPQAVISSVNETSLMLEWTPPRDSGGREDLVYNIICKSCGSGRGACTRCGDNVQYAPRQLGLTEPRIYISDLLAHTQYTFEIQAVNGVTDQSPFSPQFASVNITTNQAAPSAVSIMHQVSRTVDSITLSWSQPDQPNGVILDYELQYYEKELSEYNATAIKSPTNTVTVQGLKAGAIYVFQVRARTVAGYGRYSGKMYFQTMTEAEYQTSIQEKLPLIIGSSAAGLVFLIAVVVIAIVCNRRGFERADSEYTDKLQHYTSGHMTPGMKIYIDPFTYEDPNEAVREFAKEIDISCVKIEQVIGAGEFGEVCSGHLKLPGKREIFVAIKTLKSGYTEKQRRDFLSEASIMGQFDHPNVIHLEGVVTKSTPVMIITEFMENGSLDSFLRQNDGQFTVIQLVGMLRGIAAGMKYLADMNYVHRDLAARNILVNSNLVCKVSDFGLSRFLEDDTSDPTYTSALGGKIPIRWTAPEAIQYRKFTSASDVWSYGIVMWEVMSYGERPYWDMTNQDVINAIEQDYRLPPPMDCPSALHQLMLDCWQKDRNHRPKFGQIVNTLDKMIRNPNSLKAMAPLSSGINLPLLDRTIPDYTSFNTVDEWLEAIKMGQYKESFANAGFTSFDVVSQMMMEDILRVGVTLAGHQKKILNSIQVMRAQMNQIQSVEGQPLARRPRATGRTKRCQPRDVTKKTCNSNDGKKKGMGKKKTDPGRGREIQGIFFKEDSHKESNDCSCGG
T10 sequence (P06239 whole entry): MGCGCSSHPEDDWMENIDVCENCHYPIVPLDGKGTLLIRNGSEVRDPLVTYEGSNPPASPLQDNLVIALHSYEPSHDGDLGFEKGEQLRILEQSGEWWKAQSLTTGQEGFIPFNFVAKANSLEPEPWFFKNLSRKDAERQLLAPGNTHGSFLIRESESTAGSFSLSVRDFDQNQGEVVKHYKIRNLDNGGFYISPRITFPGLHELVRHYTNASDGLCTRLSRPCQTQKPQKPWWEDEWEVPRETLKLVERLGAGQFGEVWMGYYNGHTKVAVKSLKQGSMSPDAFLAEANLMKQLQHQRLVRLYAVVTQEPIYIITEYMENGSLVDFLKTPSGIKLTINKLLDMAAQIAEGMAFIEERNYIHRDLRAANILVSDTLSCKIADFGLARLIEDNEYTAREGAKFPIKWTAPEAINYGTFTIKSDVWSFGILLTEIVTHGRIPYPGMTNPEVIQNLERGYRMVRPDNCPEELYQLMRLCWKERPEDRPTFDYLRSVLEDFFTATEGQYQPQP

For `C=CC(=O)Nc1ccc(OC)c(Nc2cc(-c3[nH]c(CC)nc3-c3cccc(NC(=O)c4cccc5c4NC(=O)c4ccccc4N5)c3)ccn2)c1` [Compound 4], the POC is listed as 65% of control in assay [1]; 40% of control in assay [2]; 100% of control on BUB1; 91% of control at CDC2L2; 54% of control on CTK; 13% of control on EGFR(E746-A750del). Further, the POC at EGFR(G719S) is recorded as 13% of control; at EIF2AK1 it was 75% of control; on EPHB2 it was 100% of control; on ERK2, 100% of control; on FRK, 20% of control; at IKK-beta, 88% of control. The POC at JNK1 is 85% of control; on KIT(D816V), 94% of control; on LCK it was 7.7% of control; on LIMK2 it was 93% of control; at MEK5, 41% of control; on MKNK2, 100% of control. Further, the POC is reported as 85% of control on MST1R; 48% of control on NLK; 100% of control on PRKCI; 62% of control on PRKD2; 83% of control at RIOK2; 89% of control at TNNI3K.
